# Results published in patent publication US20250215030A1, “STAT MODULATORS AND USES THEREOF” (Recludix Pharma, Inc., priority 2022, published 2025).
# pIC50: −log10 of the molar value.
# Columns and labels:
# [1] = target: T1, Recombinant STAT3 protein (STAT3(G127-I722)) (Homo sapiens, UniProt P40763); test: STAT3 Fluorescence Polarization (FP) Assay; type: binding; conditions: STAT3(G127-I722) 25 nM, probe 5-FAM-GpYLPQTV-NH2 2 nM, 45-minute incubation
# T1 construct: STAT3(G127-I722)
# Protocol: STAT3 Fluorescence Polarization (FP) Assay
# An FP assay was developed to determine IC50 values for test substances. Recombinant STAT3 protein (STAT3(G127-I722)) at 25 nM was combined with a fluorescently labeled, phosphotyrosine peptide probe (5-FAM-GpYLPQTV-NH2) at 2 nM in FP buffer (10 mM HEPES pH 7.4, 50 mM NaCl, 1 mM EDTA, 0.05% Tween 20, 2 mM DTT). 50 μL of STAT3-probe mixture was added to serial diluted compounds in black, 96-well plates (Greiner BioOne 655076) to a final concentration of 1% DMSO. Reaction components were mixed, and FP was measured after 45-minute incubation at room temperature using a Tecan Spark multimode plate reader. FP signal (mP) was plotted against the log concentration of the test substances and IC50 values were calculated by nonlinear regression analysis using GraphPad Prism software. For STAT3 FP assay, A=≤100 nM; B=>100-1000 nM; C=>1-10 μM; and D=>10 μM.
# [2] = target: T2, Recombinant STAT6 protein (STAT6(W123-T658)) (Homo sapiens, UniProt P42226); test: STAT6 Fluorescence Polarization (FP) Assay; type: binding; conditions: STAT6(W123-T658) 250 nM, probe 5-FAM-ApYKPFQDLI-NH2 2 nM, 45-minute incubation
# T2 construct: STAT6(W123-T658)
# T2 sequence (P42226 123-658): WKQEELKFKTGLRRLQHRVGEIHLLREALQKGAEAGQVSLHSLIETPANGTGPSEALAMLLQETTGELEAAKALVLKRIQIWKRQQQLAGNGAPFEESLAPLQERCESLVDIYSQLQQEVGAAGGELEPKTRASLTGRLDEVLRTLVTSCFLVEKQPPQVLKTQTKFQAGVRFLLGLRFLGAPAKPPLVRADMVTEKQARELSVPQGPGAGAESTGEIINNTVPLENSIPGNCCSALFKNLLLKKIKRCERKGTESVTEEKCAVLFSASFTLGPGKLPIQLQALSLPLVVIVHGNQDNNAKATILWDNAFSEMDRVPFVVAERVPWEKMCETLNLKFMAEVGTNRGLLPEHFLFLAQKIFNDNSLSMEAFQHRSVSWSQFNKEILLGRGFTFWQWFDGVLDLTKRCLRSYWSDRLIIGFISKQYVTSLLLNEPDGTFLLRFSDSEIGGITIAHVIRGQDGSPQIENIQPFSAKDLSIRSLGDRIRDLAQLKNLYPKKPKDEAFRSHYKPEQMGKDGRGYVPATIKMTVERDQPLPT
# Protocol: STAT6 Fluorescence Polarization (FP) Assay
# An FP assay was developed to determine IC50 values for test substances. Recombinant STAT6 protein (STAT6(W123-T658)) at 250 nM was combined with a fluorescently labeled, phosphotyrosine peptide probe (5-FAM-ApYKPFQDLI-NH2) at 2 nM in FP buffer (10 mM HEPES pH 7.4, 50 mM NaCl, 1 mM EDTA, 0.05% Tween 20, 2 mM DTT). 50 μL of STAT6-probe mixture was added to serial diluted compounds in black, 96-well plates (Greiner BioOne 655076) to a final concentration of 1% DMSO. Reaction components were mixed, and FP was measured after 45-minute incubation at room temperature using a Tecan Spark multimode plate reader. FP signal (mP) was plotted against the log concentration of the test substances and IC50 values were calculated by nonlinear regression analysis using GraphPad Prism software. For STAT6 FP assay, A=≤300 nM; B=>300-3000 nM; C=>3-30 μM; and D=>30 μM.
# T1 sequence (P40763 127-722, species assumed): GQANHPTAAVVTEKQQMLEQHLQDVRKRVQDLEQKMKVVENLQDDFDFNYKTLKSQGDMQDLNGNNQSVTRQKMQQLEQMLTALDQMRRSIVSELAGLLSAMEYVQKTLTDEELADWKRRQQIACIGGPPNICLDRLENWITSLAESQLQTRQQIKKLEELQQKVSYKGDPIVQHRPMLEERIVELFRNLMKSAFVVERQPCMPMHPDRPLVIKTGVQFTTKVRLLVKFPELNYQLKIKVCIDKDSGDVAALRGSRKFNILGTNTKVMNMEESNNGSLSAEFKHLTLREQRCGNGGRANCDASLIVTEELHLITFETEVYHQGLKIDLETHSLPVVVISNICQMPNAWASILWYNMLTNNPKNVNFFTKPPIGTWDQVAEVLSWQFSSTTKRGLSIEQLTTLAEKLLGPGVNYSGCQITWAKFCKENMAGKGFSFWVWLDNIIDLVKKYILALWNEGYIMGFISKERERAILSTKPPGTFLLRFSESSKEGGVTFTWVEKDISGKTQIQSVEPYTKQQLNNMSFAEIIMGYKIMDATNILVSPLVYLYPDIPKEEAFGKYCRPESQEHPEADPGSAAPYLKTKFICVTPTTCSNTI
smiles,measurement,setting,value
"O=C(N[C@H]1C[C@@H]2C[C@@H]2C[C@H]2CC[C@@H](C(=O)N3CC(c4cnccc4N4CCOCC4)C3)N2C1=O)c1cc2cc([C@H](F)P(=O)(O)O)ccc2s1 (single isomer, unassigned) [Example 406]",pIC50,[1],> 7.00
same,pIC50,[2],4.52 to 5.52
"CN(C)c1ccncc1C1CN(C(=O)[C@@H]2CC[C@@H]3C[C@H]4C[C@H]4C[C@H](NC(=O)c4cc5cc([C@H](F)P(=O)(O)O)ccc5s4)C(=O)N32)C1 (single isomer, unassigned) [Example 407]",pIC50,[1],> 7.00
same,pIC50,[2],4.52 to 5.52
"CN(C)c1ccncc1C1CN(C(=O)[C@@H]2CC[C@@H]3C[C@H]4C[C@H]4C[C@H](NC(=O)c4cc5cc([C@@H](F)P(=O)(O)O)ccc5s4)C(=O)N32)C1 (single isomer, unassigned) [Example 408]",pIC50,[1],> 7.00
same,pIC50,[2],4.52 to 5.52
"COC[C@@H]1CCN1c1ccncc1C1CN(C(=O)[C@@H]2CC[C@@H]3C[C@H]4C[C@H]4C[C@H](NC(=O)c4cc5cc([C@@H](F)P(=O)(O)O)ccc5s4)C(=O)N32)C1 (single isomer, unassigned) [Example 410]",pIC50,[1],5.00 to 6.00
same,pIC50,[2],4.52 to 5.52
"COC[C@@H]1CCN1c1ccncc1C1CN(C(=O)[C@@H]2CC[C@@H]3C[C@H]4C[C@H]4C[C@H](NC(=O)c4cc5cc([C@H](F)P(=O)(O)O)ccc5s4)C(=O)N32)C1 (single isomer, unassigned) [Example 411]",pIC50,[1],6.00 to 7.00
same,pIC50,[2],5.52 to 6.52
"N#C[C@@H]1[C@@H](c2cccnc2)CN(C(=O)[C@@H]2CC[C@@H]3C[C@H]4C[C@H]4C[C@H](NC(=O)c4cc5cc([C@H](F)P(=O)(O)O)ccc5s4)C(=O)N32)C12CC2 (single isomer, unassigned) [Example 429]",pIC50,[1],5.00 to 6.00
same,pIC50,[2],≥ 6.52
"CN(C)c1ccncc1[C@@H]1CN(C(=O)[C@@H]2CC[C@@H]3C[C@H]4C[C@H]4C[C@H](NC(=O)c4cc5cc([C@H](F)P(=O)(O)O)ccc5s4)C(=O)N32)C2(CC2)C1 (single isomer, unassigned) [Example 433]",pIC50,[1],> 7.00
same,pIC50,[2],5.52 to 6.52
"CN(C)c1ccncc1[C@H]1CN(C(=O)[C@@H]2CC[C@@H]3C[C@H]4C[C@H]4C[C@H](NC(=O)c4cc5cc([C@H](F)P(=O)(O)O)ccc5s4)C(=O)N32)C2(CC2)C1 (single isomer, unassigned) [Example 435]",pIC50,[1],> 7.00
same,pIC50,[2],≥ 6.52
"CC12CC1C[C@H](NC(=O)c1cc3cc(C(F)(F)P(=O)(O)O)ccc3s1)C(=O)N1[C@H](CC[C@H]1C(=O)N1CC(c3cccnc3)C1)C2 (stereo in doubt) [Example 231, (difluoro(2-(((3S,6S,7aR,8aS,9aR)-8a-methyl-5-oxo-3-(3-(pyridin-3-yl)azetidine-1-carbonyl)decahydro-1H-cyclopropa[d]pyrrolo[1,2-a]azocin-6-yl)carbamoyl)benzo[b]thiophen-5-yl)methyl)phosphonic acid]",pIC50,[1],> 7.00
same,pIC50,[2],4.52 to 5.52
"COC1(c2nccn2C)CN(C(=O)[C@@H]2CC[C@@H]3CC4(C)CC4C[C@H](NC(=O)c4cc5cc(C(F)(F)P(=O)(O)O)ccc5s4)C(=O)N32)C1 (stereo in doubt) [Example 239, (difluoro(2-(((3S,6S,7aR,8aS,9aR)-3-(3-methoxy-3-(1-methyl-1H-imidazol-2-yl)azetidine-1-carbonyl)-8a-methyl-5-oxodecahydro-1H-cyclopropa[d]pyrrolo[1,2-a]azocin-6-yl)carbamoyl)benzo[b]thiophen-5-yl)methyl)phosphonic acid]",pIC50,[1],> 7.00
same,pIC50,[2],4.52 to 5.52
"CC(=O)N1CCC2C1CN2C(=O)[C@@H]1CC[C@@H]2C[C@H]3C[C@H]3C[C@H](NC(=O)c3cc4cc(C(F)P(=O)(O)O)ccc4s3)C(=O)N21 (stereo in doubt) [Example 289, ((2-(((3S,6S,7aS,8aR,9aR)-3-((1S,5S)-2-acetyl-2,6-diazabicyclo[3.2.0]heptane-6-carbonyl)-5-oxodecahydro-1H-cyclopropa[d]pyrrolo[1,2-a]azocin-6-yl)carbamoyl)benzo[b]thiophen-5-yl)fluoromethyl)phosphonic acid]",pIC50,[1],6.00 to 7.00
same,pIC50,[2],4.52 to 5.52
